Experimental data published in ChEMBL document CHEMBL3137667, “[Drug-induced liver injury; fourteenth updated edition of the bibliographic database of liver injuries and related drugs]” (Gastroenterol Clin Biol, 2004).

Experiments:
[1] = Highest frequency of moderate liver toxicity observed during clinical trials, expressed as a percentage. [column '% BIOL' in source]; conditions: human
[2] = Highest frequency of acute liver toxicity observed during clinical trials, expressed as a percentage. [column '% AIGUE' in source]; conditions: human
[3] = Times to onset, minimal and maximal, observed in the indexed observations. [column 'DELAI' in source]; conditions: human
[4] = human, serum
[5] = human, serum; remark: listed apart in the source
[6] = human
[7] = human; remark: listed apart in the source
[8] = human; remark: listed apart in the source
[9] = human, serum, 4383 h
[10] = human; remark: listed apart in the source
[11] = human; remark: listed apart in the source
[12] = human; remark: listed apart in the source
[13] = human; remark: listed apart in the source
[14] = human; remark: listed apart in the source
[15] = human; remark: listed apart in the source
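For Hepatotoxicity (association with vascular disease) in this document: count of indexed literature references reporting vascular liver injury in humans, e.g. peliosis hepatitis, hepatic veno-occlusive disease or Budd-Chiari syndrome.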
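For Hepatotoxicity (benign tumour) in this document: value is a count of indexed literature references citing a benign tumour confirmed by histopathology.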
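For Hepatotoxicity (choleostasis) in this document: human cholestatic liver injury, shown by histopathology or by peak ALT or AST elevation over alkaline phosphatase ratio below 2, value counts indexed literature reports.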
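For Hepatotoxicity (chronic liver disease) in this document: chronic liver injury confirmed by histopathology or persistently raised serum aminotransferase activity beyond 6 months, value given as the count of indexed literature references.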
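For Hepatotoxicity (cirrhosis) in this document: value is a count of indexed literature references reporting cirrhosis confirmed by histopathology.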
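For Hepatotoxicity (cytolytic) in this document: human cytolytic liver injury, shown by histopathology or by a ratio above 5 of peak ALT or AST elevation to alkaline phosphatase elevation, value counts indexed references.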
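For Hepatotoxicity (granulomatous hepatitis) in this document: value is a count of indexed literature references reporting granulomatous liver disease confirmed by histopathology.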
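For Hepatotoxicity (malignant tumour) in this document: malignant tumour confirmed by histopathology, value gives the count of indexed literature references reporting it.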
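For Hepatotoxicity (severe hepatitis) in this document: human clinical data: severe hepatitis, meaning potentially life-threatening liver failure or clinically observed cases, the value counts how many indexed literature references report it.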
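For Hepatotoxicity (steatosis) in this document: steatosis confirmed by histopathology, value is the count of indexed references.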

Compound	Hepatotoxicity (moderate) [1] [%]	Hepatotoxicity (acute) [2] [%]	Hepatotoxicity (time to onset) [3]	Hepatotoxicity (moderate) [4]	Hepatotoxicity (acute) [5]	Hepatotoxicity (cytolytic) [6]	Hepatotoxicity (choleostasis) [7]	Hepatotoxicity (severe hepatitis) [8]	Hepatotoxicity (chronic liver disease) [9]	Hepatotoxicity (cirrhosis) [10]	Hepatotoxicity (granulomatous hepatitis) [11]	Hepatotoxicity (association with vascular disease) [12]	Hepatotoxicity (steatosis) [13]	Hepatotoxicity (malignant tumour) [14]	Hepatotoxicity (benign tumour) [15]	other results
MUROMONAB-CD3	0	0	1 days	0	1	1	0	0	0	0	0	0	0	0	0	
COc1nc(C)nc(Cl)c1N=C1NCCN1 [MOXONIDINE]			9 months	0	1	1	1		0	0	0	0	0	0	0	Hepatotoxicity (moderate) ([1]; Liver): 0%; Hepatotoxicity (acute) ([2]; Liver): 0%; Hepatotoxicity (severe hepatitis) ([8]; Liver): 1
CCN[C@@H](C)Cc1cccc(C(F)(F)F)c1 [DEXFENFLURAMINE]	0	0	4 years	0	0	0	0	0	0	1	0	0	0	0	0	
CN1c2c(oc(=O)n(-c3ccccn3)c2=O)-c2ccccc2S1(=O)=O [DROXICAM]	0	> 0	10 days - 7 weeks	0	7	4	6	0	0	0	1	0	0	0	0	
COc1cccc(OC)c1C(=O)N[C@@H]1C(=O)N2[C@@H]1SC(C)(C)[C@@H]2C(=O)O [METHICILLIN]	18.7	0	3 days - 3 weeks	1	0	0	0	0	0	0	0	0	0	0	0	
COc1cc(NS(=O)(=O)c2ccc(N)cc2)nc(OC)n1 [SULFADIMETHOXINE]	0	0	1 month - 2 months	0	2	1	0	0	0	0	1	0	0	0	0	
CCN(CCO)CCCC(C)Nc1ccnc2cc(Cl)ccc12 (stereo not given) [HYDROXYCHLOROQUINE]	11.1	5.3	1 year	1	2	1	1	1	0	0	0	0	0	0	0	
CC(=O)N[C@H]1[C@H]([C@H](O)[C@H](O)CO)OC(C(=O)O)=C[C@@H]1N=C(N)N [ZANAMIVIR]	14.5	0	8 days	2	0	0	0	0	0	0	0	0	0	0	0	
COCCOC(=O)C1=C(C)NC(C)=C(C(=O)OC(C)C)C1c1cccc([N+](=O)[O-])c1 (stereo not given) [NIMODIPINE]	2.7	0.7	6 months	5	3	1	0	0	0	0	0	0	0	0	0	
CC(=O)Nc1ccc(/C=N/NC(N)=S)cc1 [AMITHIOZONE]	18	2.5	1.5 months - 6 months	4	6	5	2	2	0	1	0	0	2	0	0	
C[C@H]1CC(=O)C[C@@H]2CC[C@H]3[C@@H]4CC[C@H](O)[C@@]4(C)CC[C@@H]3[C@]21C [MESTEROLONE]	0	0	2 years	0	1	1	0	0	0	0	0	0	0	0	0	
CC(=O)O[C@@]12CO[C@@H]1C[C@H](O)[C@@]1(C)C(=O)[C@H](O)C3=C(C)[C@@H](OC(=O)[C@H](O)[C@@H](NC(=O)OC(C)(C)C)c4ccccc4)C[C@@](O)([C@@H](OC(=O)c4ccccc4)[C@H]21)C3(C)C.O.O.O [DOCETAXEL]	20	14.3	3 days - 8 days	3	4	2	1	1	0	0	0	0	0	0	0	
CN1C(C(=O)Nc2ccccn2)=C(O)c2sccc2S1(=O)=O [TENOXICAM]			3 days - 5 days	8	3				0	0		0	0	0	0	Hepatotoxicity (moderate) ([1]; Liver): 27%; Hepatotoxicity (acute) ([2]; Liver): 0%; Hepatotoxicity (cytolytic) ([6]; Liver): 2; Hepatotoxicity (choleostasis) ([7]; Liver): 2; Hepatotoxicity (severe hepatitis) ([8]; Liver): 0; Hepatotoxicity (granulomatous hepatitis) ([11]; Liver): 0
CC(=O)Nc1nnc(S(N)(=O)=O)s1 [ACETAZOLAMIDE]	0	0	1 month	0	1	0	1	1	0	0	0	0	1	0	0	
